In patent US8501791B2, “1,2,4-thiadiazolium derivatives as melanocortin receptor modulators” (Ortho-McNeil Pharamaceutical, Inc., priority 2001, dated 2013):
Values joined by “and” are separate entries in the source; they are usually repeats but may differ in a detail not shown here. Identical values can stand only once.

What was measured:
[1] = target: T1, melanocortin MC-4 receptor (Homo sapiens, UniProt P32245); assay: Melanocortin MC-4 Receptor Binding Assay (SPA); details: 125I-NDP-melanocyte stimulating hormone
T1 construct: purchased Receptor Biology Inc
Description: Radioactive ligand ^125I-NDP-melanocyte stimulating hormone [NEN, 2000 Ci/mmol] was added to each well (48.54 per well, […] final concentration). The plate was then sealed and let stand for 16 hr at 25° C. NDP-Melanocyte stimulating hormone peptide and α-melanocyte stimulating hormone peptide [purchased from Palomar Research Inc, 1 μM] were used as reference inhibitor compounds to define non-specific binding (N). Total binding (T) was defined using 30% DMSO-50 mM HEPES, pH 7.4 buffer. Bound radioactivity for each well (Y), measured at counts per minute (cpm) was measured in a TopCount [Packard, Calif.]. Percent inhibition was calculated as: […]

[2] = test system: human skin transplanted to the SCID mouse; assay: Human skin-SCID mouse chimera model, sebum production; assay type: in vivo, SCID mouse with human skin graft
Excerpt: Severe combined immunodeficient mice (SCID) provide an invaluable model for skin xenografting. These animals are devoid of both T and B cell immunity. Human skin grafts in SCID mice retain human cellular tissue components including skin immune cells, i.e. Langerhans cells, macrophages and lymphocytes and also part of the engrafted endothelium (Kaufman R., et al., Exp. Dermatol. 1993:2:209-216, 1993). These properties allow for the study of physiological and/or pathological responses of human skin cells to a test compound.
C.B-17 scid/scid mice (Taconic, Germantown, N.Y.) were used for grafting at 5-6 weeks of age. Full thickness human facial skin was shaved to ˜0.4 mm using a Forman Dermatome. The skin shavings were washed 3 times in antibiotics and antimycotics (penicillin, streptomycin, fungizone) (Life technologies) in Dulbecco's Modified Eagle Medium (DMEM, Life Technologies). Elliptical skin ˜2.0-2.5×1.0-1.5 was grafted onto the prepared graft bed and sutured using 4.0 silk. During surgical procedures the mice were anaesthetized using a mixture of Ketaset (0.16 mg/g body weight) and Rompun (8.0 μg/g body weight).
It is well accepted that the wound healing process of the transplanted skin in the SCID mouse takes one month, at which time the human skin can be used for experimental purposes. […] Maximum size of the glands was observed 3 month post transplantation. The glands retained their capability to produce human specific sebum and the glandular tissue expressed human specific markers including MC5-R. Since glands reached their maximum size at 2-3 month post transplantation the effects of inhibitors of sebum secretion was tested at this point.
Mice at 2-3 month post transplantation with human facial skin were used for the studies. The graft area was treated with the test compound at the desired concentration(s) dissolved in polyethylene glycol-ethanol (20 μl/2 cm^2). Controls were treated with vehicle alone. The test compounds were applied daily, excluding weekends. Sebum secretion was determined using Sebutape at 15 days and 30 days following treatment.
The termination of the experiment was determined by preliminary clinical evaluation of sebum production using SEBUTAPE. At this time human skin grafts were excised and representative samples were collected for histological evaluation. More particularly, 2 mm punch biopsies were prepared and used for evaluation of lipid synthesis and total lipid accumulation in the treated tissues.
The collected 2 mm punch biopsies were placed individually into 96 well plates in Krebs buffer and labeled with 10 μCi of ^14C acetate for 3 hours. Following this labeling period the samples were washed in medium and 5 biopsies pooled, weighed, and used for lipid extraction. The lipid extraction and analysis by HPTLC was the same as described for tissue culture derived cells. […]

human sebocytes = assay: Sebaceous lipid synthesis by sebaceous cells (14C acetate, HPTLC); assay type: cell-based; details: seven day treatment
Description: Semiconfluent cultures of 3T3 mouse fibroblasts (Swiss Albino mouse, ATCC CCL-92) were treated with mitomycin C (4 μg/ml) for 3 hours, trypsinized and seeded at a density of 2.5×10^5/9.5 cm^2 tissue culture plate in Dulbeccos Minimal Essential Medium (DMEM) containing 10% Colorado Calf Serum, PNC (100 U/ml), STM (100 μg/ml), L glutamine (0.3 mg/ml), sodium pyruvate (1 mM) and nonessential amino acids (100 μM). The cells were incubated at 37° C. for 24 hours prior to their use as a feeder layer for sebocytes.
Human sebocytes were isolated from Dermatome shavings of postoperative pieces of human skin at 0.4-0.8 mm depths (this part of the skin was previously shown to be enriched in sebaceous glands). […] Cells so obtained were filtered through nylon mesh (100μ pore size), centrifuged at 750 RPM, re-suspended in GM and counted. […]
Hormones, mixture of hormones i.e. bovine pituitary extract or compounds to be tested were added to the culture at the beginning of phase III. […] This method relies on visualization of neutral lipids by Nile red and quantitation by reading of fluorescence at 535 nm excitation, 580 nm emission using a plate reader. The lipid synthesis was evaluated by radioactive labeling using ^14C acetate and quantified by Bio Rad Phosphoimager (Molecular Imager, FX) using 4.1 Software. […]

[3] = test system: Food-Deprived Rats (MC-4); assay: Rodent feeding: food intake in food-deprived rats (MC-4); assay type: in vivo, rat; details: 10 mg/kg, ip
Description: Male Long-Evans rats (180-200 grams) were housed individually and maintained on a once-a-day feeding schedule (i.e. 10 a.m. until 4 p.m.) for five days following quarantine to allow the animals to acclimate to feeding on powdered chow (#5002 PMI Certified Rodent Meal) during the allotted time. The chow was made available in an open jar, anchored in the cage by a wire, with a metal follower covering the food to minimize spillage. Water was available ad-libitum.
Animals were fasted for 18 hours prior to testing. At the end of the fasting period, animals were administered either a test compound or vehicle. Vehicle and test compound were administered either orally (5 mL/kg) 60 minutes prior to the experiment, subcutaneously (1 mL/kg) 30 minutes prior to the experiment, or intraperitoneally (1 mL/kg) 30 minutes prior to the experiment. Test compounds were administered orally as a suspension in aqueous 0.5% methylcellulose-0.4% Tween 80, or intraperitoneally as a solution or suspension in PEG 200; compound concentrations typically ranged from 1 mg/kg to 100 mg/kg, preferably from 10-30 mg/kg. Food intake was measured at 2, 4, and 6 hours after administration by weighing the special jar containing the food before the experiment and at the specified times. Upon completion of the experiment, all animals were given a one-week washout period before re-testing.

[4] = test system: facial nerve compression, whisker movement; assay: In vivo facial nerve compression model; design: species or system rat; details: positive control s.c., 70 ug/each 48 hr
Excerpt: The ability of test compound to provide neuro-protective or neuro-regenerative effects was investigated in a facial nerve compression model. Facial nerve motor axons arise exclusively from neurons within the pons in a well-defined nucleus. Facial nerve compression results in retrograde reactions proximal to the lesion site and Wallerian degeneration at its distal part, which causes diminished whisker movement on the lesioned side. […] The right facial nerve was exposed and compressed with forceps for 30 sec at its exit from the stylomastoid foramen. The left facial nerve was sham-operated and served as an internal control. […] After recovery from anesthesia, the rats were randomly divided into groups for dosing with vehicle, αMSH or test compound, with 6 animals per group. αMSH (s.c., 70 ug/each 48 hr) was used as a positive control. Test compounds were dosed p.o. at 20 mg/kg bid for 14 days. Restoration of whisker movement was monitored daily after the operation using two criteria: (1) frequency of whisker movement on the lesioned side relative to the opposite side (sham-operated) which served as the baseline control (2) semi-quantitative measurements (0 to 4+) on strength of the whisker muscles, characterized based on observation of the percentage of moved whiskers, muscle tone of whisker muscles, and the position of the nose. For all observations, the experimental design was blind to the behavioral observer. […] The recovery rate of the whisker movement was expressed as percentage of its own internal control (sham-operated), as listed in Table 8.

rabbit adipocytes = details: read-out: EC50 lipolytic activity; cited from earlier work
[5] = 30 Day Treatment, topical 0.01%
[6] = 30 Day Treatment, topical 0.05%
[7] = human sebaceous lipids, 11 Day Treatment, topical 0.01%
[8] = human sebaceous lipids, 11 Day Treatment, topical 0.1%
[9] = human sebaceous lipids, 11 Day Treatment, topical 0.5%

T1 sequence (P32245 whole entry): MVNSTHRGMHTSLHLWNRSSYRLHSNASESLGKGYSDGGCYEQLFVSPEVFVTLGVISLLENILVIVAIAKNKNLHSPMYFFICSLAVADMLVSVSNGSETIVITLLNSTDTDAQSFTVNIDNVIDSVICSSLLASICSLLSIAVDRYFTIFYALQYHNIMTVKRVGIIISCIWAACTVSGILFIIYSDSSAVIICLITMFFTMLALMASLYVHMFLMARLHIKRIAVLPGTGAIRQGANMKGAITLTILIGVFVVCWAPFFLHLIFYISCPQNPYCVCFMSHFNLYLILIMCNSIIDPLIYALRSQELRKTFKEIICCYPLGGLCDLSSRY

`COc1ccccc1-[n+]1sc(Nc2ccc(Cl)cc2)nc1-c1ccc(C)cc1` [Compound 70] showed an IC50 [1] of 566 nM.

In the case of `COc1ccccc1-c1nc(Nc2ccccc2)s[n+]1-c1ccccc1OC.[Br-]` [Compound 74, 2-(2-methoxyphenyl)-3-(2-methoxyphenyl)-5-phenylamino-[1,2,4]-thiadiazol-2-ium], the “% Inh @ 0.01% Cholesterol Ester, Lipid Accumulation” value [2, 5] is reported as 44%, the “% Inh @ 0.01% Cholesterol, Lipid Accumulation” value [2, 5] is reported as 33% and the “% Inh @ 0.01% Cholesterol, Sebaceous Lipid Synthesis” value [2, 5] is reported as 33%. The “% Inh @ 0.01% Squaline, Lipid Accumulation” value [2, 5] was 82%, the “% Inh @ 0.01% Squaline, Sebaceous Lipid Synthesis” value [2, 5] was 80% and the “% Inh @ 0.01% Triglycerides, Lipid Accumulation” value [2, 5] was 75%. The “% Inh @ 0.01% Triglycerides, Sebaceous Lipid Synthesis” value [2, 5] was 75%, the “% Inh @ 0.01% Wax Esters, Lipid Accumulation” value [2, 5] was 86% and the “% Inh @ 0.01% Wax Esters, Sebaceous Lipid Synthesis” value [2, 5] was 86%. The “% Inh @ 0.05% Cholesterol Ester, Lipid Accumulation” value [2, 6] was 21%, the “% Inh @ 0.05% Cholesterol, Lipid Accumulation” value [2, 6] was 82% and the “% Inh @ 0.05% Cholesterol, Sebaceous Lipid Synthesis” value [2, 6] was 82%. The “% Inh @ 0.05% Squaline, Lipid Accumulation” value [2, 6] was 73%, the “% Inh @ 0.05% Squaline, Sebaceous Lipid Synthesis” value [2, 6] was 90% and the “% Inh @ 0.05% Triglycerides, Lipid Accumulation” value [2, 6] was 90%. The “% Inh @ 0.05% Triglycerides, Sebaceous Lipid Synthesis” value [2, 6] was 90%, the “% Inh @ 0.05% Wax Esters, Lipid Accumulation” value [2, 6] was 93% and the “% Inh @ 0.05% Wax Esters, Sebaceous Lipid Synthesis” value [2, 6] was 93%. The “total sebaceous lipid accumulation and de novo synthesis of sebaceous lipids” value ([2]; 30 days of topical treatment with 0.05% and 0.01% solution) was “significantly decreased”, the “% Inh @ 0.01% Squalene” value [2, 7] was 0% and the “% Inh @ 0.01% Triglycerides” value [2, 7] was 0%. The “% Inh @ 0.01% W/E” value [2, 7] was 25%, the “% Inh @ 0.1% Squalene” value [2, 8] was 70% and the “% Inh @ 0.1% Triglycerides” value [2, 8] was 50%. For the same molecule, the “% Inh @ 0.1% W/E” value [2, 8] was 80%, the “% Inh @ 0.5% Squalene” value [2, 9] was 0% and the “% Inh @ 0.5% Triglycerides” value [2, 9] was 0%. The “% Inh @ 0.5% W/E” value [2, 9] was 10%, the “lipid synthesis, radioactively labeled lipids separated by HPTLC” value (human sebocytes) was “inhibition of squalene, cholesterol esters and wax esters” and the “lipid granules in sebocyte cultures, visual” value (human sebocytes; stained cell cultures) was “complete disappearance of lipid granules”.

With `c1ccc(CNc2nc(-c3ccccc3)[n+](-c3ccccc3)s2)cc1` [Compound 84] the “Change in Food Intake 2-6 hrs (%)” value [3] was −24.5% and −17.8%.

For α-MSH, the “Percent Recovery of whisker movement D9” value ([4]; D9) was 2.0 ± 2.8%, the “Percent Recovery of whisker movement D10” value ([4]; D10) was 24.6 ± 15.8% and the “Percent Recovery of whisker movement D11” value ([4]; D11) was 60.1 ± 19.3%. For the same molecule, the “Percent Recovery of whisker movement D12” value ([4]; D12) was 93.8 ± 14.0%, the “Percent Recovery of whisker movement D13” value ([4]; D13) was 98.1 ± 5.3% and the “Percent Recovery of whisker movement D14” value ([4]; D14) was 100 ± 0.0%. The EC50 (rabbit adipocytes) was 3.7 nM.
